{"source": "patent US9688760B2", "about": "“Anti-leukocyte adhesion for the mitigation of potential adverse events caused by CD3-specific binding domains” (AMGEN RESEARCH (MUNICH) GMBH, priority 2013, dated 2017)", "key": {"[1]": {"system": "recombinant human ICAM-1/VCAM-1", "assay": "Flow chamber: Jurkat E6.1 T cell-rolling on recombinant ICAM-1/VCAM-1, semi short-term conditions", "assay_type": "cell-based", "conditions": "Jurkat E6.1 T cells, +AMG 103 10 ng/ml, t=45 min; coated at 12.5 and 10 μg/ml; control −AMG 103 640±91", "experimental": "Recombinant proteins (rhICAM-1 #ADP4-050, rhVCAM-1 #ADP5-050 or rhP-selectin #ADP3-050, R&D Systems) were dissolved in ddH2O according to the manufacturer's instructions. Prior to rolling experiments recombinant proteins were diluted in Dulbecco's PBS with Ca^2+ and Mg^2+ (#L1815, Biochrom) and coated onto a μ-slide VI^0.4 Luer ibiTreat (#80606, ibidi) over night at 4° C. Before usage slides were washed three times with Dulbecco's PBS and blocked where indicated with 20% FBS (#10270, Gibco) in PBS for 2 h at room temperature. Blocking solution was replaced by RPMI 1640 medium (#FG1215, Biochrom) without supplements. […]\nFor rolling experiments using Jurkat E6.1 T cells, these cells were resuspended in RPMI 1640 medium (#FG1215, Biochrom) without supplements to a final concentration of 1.5-3×10^5 cells/ml. […] Image sequences of 45 sec duration were recorded at t=40 min, 45 min, and 50 min as described in Example 2 (p. 50, 18-23).\nExperiments under defined hydrodynamic flow conditions were performed by using either freshly isolated human T cells or Jurkat E6.1 T cells and μ-slide VI^0.4 Luer ibiTreat (#80606, ibidi) coated with different recombinant proteins as described above. […] T cell-interactions with recombinant proteins were recorded as described above and data was analyzed as described in detail in Example 2 (p. 50, 23-30). […]"}, "patients": {"system": "patients", "conditions": "cited from earlier work"}, "[2]": {"system": "recombinant human P-selectin", "assay": "Flow chamber: T cell-rolling on recombinant P-selectin, semi short-term conditions", "assay_type": "cell-based", "conditions": "+AMG 103 10 ng/ml, coated at 20 μg/ml", "experimental": "(§1) Recombinant proteins (rhICAM-1 #ADP4-050, rhVCAM-1 #ADP5-050 or rhP-selectin #ADP3-050, R&D Systems) were dissolved in ddH2O according to the manufacturer's instructions. Prior to rolling experiments recombinant proteins were diluted in Dulbecco's PBS with Ca^2+ and Mg^2+ (#L1815, Biochrom) and coated onto a μ-slide VI^0.4 Luer ibiTreat (#80606, ibidi) over night at 4° C. Before usage slides were washed three times with Dulbecco's PBS and blocked where indicated with 20% FBS (#10270, Gibco) in PBS for 2 h at room temperature. Blocking solution was replaced by RPMI 1640 medium (#FG1215, Biochrom) without supplements.\nIsolation and characterization of human peripheral blood mononuclear cells (PBMC) and T cells from blood were performed as described in Example 2 (p. 48, 1-31). […]\n(§2) For rolling experiments using freshly isolated T cells, these cells were resuspended in RPMI 1640 medium (#FG1215, Biochrom) without supplements to a final concentration of 1×10^6 cells/ml at the start of the experiment (t=0 min; addition of 10 ng/ml Blinatumomab (AMG 103)) and incubated for 35 min at 37° C. and 5% CO2. Cells were then filled in a perfusion set “white” (#10963, ibidi) which was connected to both a fluidic unit and the μ-slide and image sequences of 45 sec duration were recorded at t=40 min, 45 min, and 50 min as described in Example 2 (p. 50, 18-23). […]"}, "recombinant human VCAM-1": {"system": "recombinant human VCAM-1", "assay": "Flow chamber: T cell-rolling on recombinant VCAM-1, semi short-term conditions", "assay_type": "cell-based", "conditions": "freshly isolated T cells", "experimental": "as §1\nIsolation and characterization of human peripheral blood mononuclear cells (PBMC) and T cells from blood were performed as described in Example 2 (p. 48, 1-31).\nas §2"}}, "note": "Where two headings read alike, the source gives them in different places.", "data": [{"substance": "Blinatumomab: recombinant CD19×CD3 bispecific scFv antibody consisting of four immunoglobulin variable domains assembled into a single polypeptide chain", "values": [{"measurement": "mean T cell-rolling velocity±SD", "setting": "[1]", "value": "518±98", "unit": "μm/sec"}, {"measurement": "effect on malignant B cells in bone marrow and liver", "setting": "patients; B-NHL", "value": "clearance of malignant B cells from bone marrow and liver"}, {"measurement": "clinical response", "setting": "patients; B-NHL, dose level of 0.015 mg/m^2/day", "value": "Partial and complete responses were first observed"}, {"measurement": "effect on B lymphoma cells in peripheral blood", "setting": "patients; B-NHL, doses as low as 0.005 mg/m^2/day civ infusion over four weeks", "value": "complete and sustained elimination of B lymphoma cells in peripheral blood"}, {"measurement": "clinical response", "setting": "patients; B-precursor ALL, minimal residual disease and relapsed or refractory, four-week civ infusions, 0.015 mg/m^2/day", "value": "hematological complete response"}, {"measurement": "clinical response", "setting": "patients; majority of B-NHL patients, dose level of 0.06 mg/m^2/day", "value": "substantial tumor regression"}, {"measurement": "mean T cell-rolling velocity±SD", "setting": "[2]; Jurkat E6.1 T cells, t=45 min, control −AMG 103 500±81", "value": "413±104", "unit": "μm/sec"}, {"measurement": "mean T cell-rolling velocity±SD", "setting": "[2]; freshly isolated T cells, t=50 min, with blocking, control −AMG 103 402±115", "value": "293±73", "unit": "μm/sec"}, {"measurement": "mean T cell-rolling velocity±SD", "setting": "recombinant human VCAM-1; +AMG 103 10 ng/ml with vehicle DMSO, t=40 min, coated at 20 μg/ml, control −AMG 103 259±35", "value": "205±45", "unit": "μm/sec"}, {"measurement": "mean T cell-rolling velocity±SD", "setting": "recombinant human VCAM-1; +AMG 103 10 ng/ml, t=45 min, coated at 10 μg/ml, with blocking, control −AMG 103 418±136", "value": "353±72", "unit": "μm/sec"}]}]}
